What was measured:
D4R = target: T1, D4R (Homo sapiens, UniProt P21917, DEL265-296); experiment: D4R competition binding ([3H]-spiperone); details: for inhibition at 10 µM: 2 h, 10 µM compound, n=2, read-out: D4R % displacement at 10 µM; for Ki: mean±SEM of two experiments in duplicate, read-out: D4R binding affinity Ki
T1 sequence (P21917 with tags, fused parts or gaps DEL265-296): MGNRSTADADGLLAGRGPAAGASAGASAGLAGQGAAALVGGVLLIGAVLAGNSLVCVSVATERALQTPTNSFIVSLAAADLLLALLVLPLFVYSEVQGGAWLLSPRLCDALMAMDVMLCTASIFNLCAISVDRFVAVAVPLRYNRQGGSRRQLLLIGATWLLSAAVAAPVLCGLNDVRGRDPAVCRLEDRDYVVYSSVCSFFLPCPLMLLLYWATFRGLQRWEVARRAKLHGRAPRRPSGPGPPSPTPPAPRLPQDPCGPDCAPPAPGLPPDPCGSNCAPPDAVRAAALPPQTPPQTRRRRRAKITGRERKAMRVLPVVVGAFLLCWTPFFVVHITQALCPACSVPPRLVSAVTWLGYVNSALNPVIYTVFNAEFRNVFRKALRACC
Experimental: D4R competition binding experiments were carried out in polypropylene 96 -well plate s. Each well contained 35 µg of membranes from a CHO-D4R cell line (Perkin Elmer, RBHD42M400U A, protein concentration=14000 µg/ml), 1 nM [3H]-spiperone (68 Ci/mmol, 1 mCi/ml, Perkin Elmer NET1187001MC), and the compound studied. Non-specific binding was determined in the presence of 25 µM haloperidol (Sigma H1512). The reaction mixture (250 µl/well) was incubated at 27 °C for 120 min, after which 200 µL was transferred to GF/C 96-well plates (Millipore, Madrid, Spain) pretreated with 0.5% PEI and treated with binding buffer (50 mM Tris-HCl, 1 mM EDTA, 5 mM MgCl2, 5 mM KCl, 120 mM NaCl, pH=7.4). The samples were filtered and washed f our times with 250 µl wash buffer (50 mM Tris-HCl, 0.9% NaCl, pH=7.4) before measuring in a microplate beta scintillation counter (Microbeta Trilux, PerkinElmer, Madrid, Spain). Two independent experiments were carried out to calculate Ki values (n=2). […]

Human A2AAR = Human A2AAR (Homo sapiens, UniProt P29274); experiment: A2AAR competition binding ([3H]-ZM241385 displacement); design: expressed in transfected cells; host or cells: HeLa-A2AAR cell line (membranes); details: radioligand displacement, mean±SEM of three experiments in duplicate; read-out: A2AAR binding affinity Ki
Chain of Human A2AAR (P29274 whole entry): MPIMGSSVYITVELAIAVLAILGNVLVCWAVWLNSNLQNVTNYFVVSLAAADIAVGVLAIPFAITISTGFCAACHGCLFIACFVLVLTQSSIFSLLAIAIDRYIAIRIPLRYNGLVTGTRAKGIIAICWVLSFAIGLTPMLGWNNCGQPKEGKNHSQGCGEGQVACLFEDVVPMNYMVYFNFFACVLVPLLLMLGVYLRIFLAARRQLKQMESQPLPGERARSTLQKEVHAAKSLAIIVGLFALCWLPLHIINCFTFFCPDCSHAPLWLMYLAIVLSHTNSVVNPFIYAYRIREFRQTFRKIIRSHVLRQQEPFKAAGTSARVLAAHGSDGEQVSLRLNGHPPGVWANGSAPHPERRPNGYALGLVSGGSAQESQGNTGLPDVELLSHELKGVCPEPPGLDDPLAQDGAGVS
Experimental: Binding assays. Human A2AAR competition binding experiments were carried out in multiscreen GF/C 96-well plates (Millipore, Madrid, Spain) pretreated with binding buffer (50 mM Tris-HCl, 1 mM EDTA, 10 mM MgCl2, 2 U/ml adenosine deaminase, pH=7.4).
Each well contained 5 µg of membranes from a He l a-A2AAR cell line (protein concentration […]
compound studied. Non-specific binding was determined in the presence of 50 µM NE C A (Sigma E2387). The reaction mixture (200 µl/well) was incubated at 25 °C for 30 min, after which it was filtered and washed four times with 250 µl wash buffer (50 mM Tris -HCl, 1 mM EDTA, 10 mM MgCl 2, pH=7. 4) before measuring in a microplate beta scintillation counter (Microbeta Trilux, PerkinElmer, Madrid, Spain). Three independent experiments were carried out to calculate K i values (n=3). […]

| inhibition at 10 µM (D4R) [%] | Ki (Human A2AAR) [nM] | Ki (D4R) [nM] | SMILES |
| --- | --- | --- | --- |
| 19 ± 1 | 340 ± 50 | – | CCN(CCCCC(=O)Nc1nc2c(Br)cccc2s1)C1Cc2ccccc2C1 [Compound 22] |
| – | 610 ± 90 | 700 ± 80 | CCCN(CCCCC(=O)Nc1nc2c(OC)cccc2s1)C1Cc2ccccc2C1 [Compound 26] |
| 27 ± 4 | 390 ± 50 | – | CCCN(CCCCC(=O)Nc1nc2c(Br)cccc2s1)C1Cc2ccccc2C1 [Compound 27] |
| 19 ± 4 | 160 ± 30 | > 10000 | CCCN(CCCCC(=O)Nc1nc2c(OC)ccc(OC)c2s1)C1Cc2ccccc2C1 [Compound 30] |

— publication PMC8456950, “Structure‐Guided Design of G‐Protein‐Coupled Receptor Polypharmacology” (Angewandte Chemie (International Ed. in English), 2021)
